The record followed here is patent publication US4410525A, “Alkoxy pyrazole derivatives and compositions” (Establissements Nativelle S.A., priority 1981, dated 1983).

Data set [1] concerns ventricular arrhythmias induced by aconitine in the anesthetized rat. The data set is described as follows: Antiarrhythmic test with aconitine on the rat. It is filed as in vivo. The method, then:
The derivatives of the invention were used in the test with aconitine on the rat. For this test, the anesthetized rat was intoxicated by an intravenous perfusion of aconitine (solution of aconitine nitrate: 15 mg/l; speed of perfusion: 0.4 ml/min) while its electrocardiogram was recorded permanently. During perfusion at constant speed, the time necessary for the appearance of ventricular arrhythmias, successively ventricular extrasystoles (ESV), ventricular tachycardium (TV) and ventricular fibrillation (FV) was measured.
The animals were divided into a control group (untreated) and treated group (different doses). The results are expressed as a percentage of prolonging the time of the appearance of the arrhythmias in the treated groups in relation to the control group. This prolongation of arrhythmia appearance time therefore corresponds to myocardiac protection against the arrhythmic effects of aconitine.

The subject of data set [2] is rabbit cornea. The data set is described as follows: Local contact anesthesia on the rabbit cornea. It is filed as in vivo. Particulars: solution at 0.25% or 1% by weight, eyewash instillation. An excerpt:
For example, the derivatives described in Examples 2, 3, 4, 6, 7 and 9 are local anesthetics (100% anesthesia) in a solution at 0.25% or 1% by weight.

For data set [3], the system named is anoxic ventricular fibrillation in mice. The data set is described as follows: Cardiac antifibrillatory activity on the mouse (Lawson test). The format is in vivo. The settings on record: ip, intraperitoneal, 10 minutes before chloroform, read-out: ED 50 (protects half the mice against anoxic ventricular fibrillation). The method, then:
Cardiac antifibrillatory activity of the derivatives of the invention has been verified on the mouse using the Lawson test, in accordance with the method described by J. W. Lawson, J. Pharmacol. Exp. Therp. 160, 22-31 (1968), and C. Narcisse et al., Ann. Pharm. Fr. 37, 325-330 (1979).
The mice (20 per dose) received an intraperitoneal injection of the derivative 10 minutes before being placed in a chloroform saturated atmosphere. As soon as respiratory arrest occurred, the thorax was opened (5 to 10 seconds) and the state of the heart was checked: presence or absence of ventricular fibrillation. The efficacy dose 50 (ED 50) of the derivative being studied is the dose which protects half the mice against anoxic ventricular fibrillation.

The nature of data set [4]: Acute toxicity (lethal dose 50) in the mouse. Particulars: in vivo. An excerpt:
The acute toxicity of the deriatives of the invention were studied by oral administration (P.O) to the mouse (10 animals, 5 males and 5 females per dose) and calculation of the lethal dose 50 (LD 50) in accordance with the method of Litchfield and Wilcoxon (J. Pharmacol., 96, 99-113 (1949)). Table 1 gives the LD 50 values of the derivatives of the invention.
In certain cases, the LD 50 was also studied after intraperitoneal injection (I.P.) of the derivatives.

Data set [5] deals with isolated guinea pig auricle. The data set is described as follows: Maximum stimulation frequency test on isolated guinea pig auricle. The settings on record: Cavia porcellus; 10 mg/l; read-out: Δ% MFS (decrease of the maximum frequency followed). As to the method:
The maximum frequency test carried out studied the maximum stimulation frequency which can cause contraction of an isolated guinea pig auricle placed in a solution containing a derivative of the invention. The measurement was carried out before (control period) and then after introduction of the derivative into the solution.

Data set [6] deals with anesthetized dog. Put plainly: Hemodynamic effects on the anesthetized dog. The format is in vivo. Particulars: i.v.; for (dp/dt)l/p, percentage of variation / Cardiac flow, percentage of variation / Cardiac frequency, percentage of variation / Contraction force of the myocardium, percentage of variation / Systolic arterial pressure, percentage of variation / Systolic volume, percentage of variation: Example 4 series, vs pretreatment; for Cardiac frequency (result in words) / Systolic arterial pressure (result in words) / force of ventricular myocardiac contractions (result in words) / cumulative dose at which a 20% drop of cardiac flow is reached: anesthetized dog. As to the method: Cardiovascular tolerance was studied on the isolated guinea pig auricle, on the anesthetized rat and on the anesthetized dog.
On the anesthetized dog, the results obtained with respect to hemodynamic tolerance are summarized in Table 2 below which indicates the percentages of variation of the hemodynamic parameters in relation to the pre-treatment control period for the derivatives of Examples 2 and 4.
The parameters were recorded by means of:
Catheters connected to pressure sensors (arterial pressure, left ventricular pressure and its first derivative dp/dt);
Electromagnetic flowmeter on the aorta (aortic flow);
Strain gauge placed on the left ventricular myocardium (force of myocardiac contraction).
The derivatives were injected intraveneously, one dose approximately every 30 minutes and their effects were measured 20 minutes after the completion of the injection (length of the injection 2 minutes).

Data set [7] concerns ventricular extrasystoles in the dog. Put plainly: Harris test on the dog. It is filed as in vivo. The settings on record: during the 2 hours following the injection. As to the method: By way of example, the number of ventricular extrasystoles per minute decreases by approximately 50% during the 2 hours following the injection of the product, in the case of the derivative described in Example 10. Moreover, the antiarrhythmic effect (myocardiac protection) increases with the size of the dose injected.

Where [8] appears, read: read-out: Prolongation of time of appearance of ventricular extrasystoles (ESV).
Where [9] appears, read: read-out: Prolongation of time of appearance of ventricular fibrillation (FV).
The mark [10] stands for this setting: read-out: Prolongation of time of appearance of ventricular tachycardium (TV).
Where [11] appears, read: oral (P.O.), 5 males and 5 females per dose, read-out: LD 50 P.O.

Like-named read-outs stand apart in the source and are kept apart here.

As for `Cc1c(-c2ccccc2)n[nH]c1OCCN1CCOCC1` [Example 4, 3-Phenyl-4-methyl-5-morpholinoethoxy-pyrazole], the change in vivo at 10 mg/kg in data set [1] (setting [8]) is 7%. The change in vivo at 10 mg/kg in data set [1] (setting [9]) was 18%. For the same molecule, the change in vivo at 10 mg/kg in data set [1] (setting [10]) is 22%. In addition, in data set [2], the local anesthesia is 100%. In data set [3], the ED50 stood at 46 mg/kg. Moreover, the LD50 in data set [4] (setting [11]) is 750 mg/kg. Besides, the inhibition at 10 µg/mL in data set [5] is 27%. Moreover, in data set [6] (dose 1 mg/kg), the “(dp/dt)l/p, percentage of variation” value is listed as “+10%”; the “Cardiac flow, percentage of variation” value was 0%; the “Cardiac frequency, percentage of variation” value (“Cardiac frequency, percentage” for short) was determined as 0%; the “Contraction force of the myocardium, percentage of variation” value is listed as “+5%”. Besides, in data set [6] (dose 1 mg/kg), the “Systolic arterial pressure, percentage of variation” value worked out at 0% and the “Systolic volume, percentage of variation” value worked out at 0%. For the same molecule, in data set [6] (dose +3 mg/kg), the “(dp/dt)l/p, percentage of variation” value is “+2%”; the “Cardiac flow, percentage of variation” value is given as 0%; the “Cardiac frequency, percentage” value is listed as 0%; the “Contraction force of the myocardium, percentage of variation” value is on record as “+10%”. For the same molecule, in data set [6] (dose +3 mg/kg), the “Systolic arterial pressure, percentage of variation” value is on record as 0% and the “Systolic volume, percentage of variation” value amounted to 0%. For the same molecule, in data set [6] (dose +10 mg/kg), the “(dp/dt)l/p, percentage of variation” value was -10%; the “Cardiac flow, percentage of variation” value is -23%; the “Cardiac frequency, percentage” value stood at 0%; the “Contraction force of the myocardium, percentage of variation” value is “+26%”. Moreover, in data set [6] (dose +10 mg/kg), the “Systolic arterial pressure, percentage of variation” value amounted to 0% and the “Systolic volume, percentage of variation” value is given as -23%. Besides, in data set [6] (dose +20 mg/kg), the “(dp/dt)l/p, percentage of variation” value is reported as -21%; the “Cardiac flow, percentage of variation” value is given as -34%; the “Cardiac frequency, percentage” value is listed as 0%; the “Contraction force of the myocardium, percentage of variation” value is given as “+42%”. Moreover, in data set [6] (dose +20 mg/kg), the “Systolic arterial pressure, percentage of variation” value was found to be 0% and the “Systolic volume, percentage of variation” value is -34%. In data set [6] (dose +40 mg/kg), the “(dp/dt)l/p, percentage of variation” value was -10%; the “Cardiac flow, percentage of variation” value was -11%; the “Cardiac frequency, percentage” value is given as -18%; the “Contraction force of the myocardium, percentage of variation” value is “+52%”. In addition, in data set [6] (dose +40 mg/kg), the “Systolic arterial pressure, percentage of variation” value is listed as 0% and the “Systolic volume, percentage of variation” value is reported as -8%. Also, in data set [6], the “Cardiac frequency (result in words)” value is recorded as “does not change”, the “Systolic arterial pressure (result in words)” value was “does not change”, the “force of ventricular myocardiac contractions (result in words)” value is listed as “increases” and the “cumulative dose at which a 20% drop of cardiac flow is reached” value is given as “greater than 4 mg/kg”.

Take `Clc1ccc(-c2cc(OCCN3CCCC3)[nH]n2)cc1` [Example 7]: the results for the change in vivo at 10 mg/kg in data set [1] (setting [8]), in data set [1] (setting [9]) and in data set [1] (setting [10]) were 11%, 32% and 45%, respectively. Also, the local anesthesia in data set [2] came to 100%. In addition, the ED50 in data set [3] amounted to 66 mg/kg. The LD50 in data set [4] (ip, intraperitoneal (I.P.), read-out: LD 50 I.P.) turned out to be 280 mg/kg; in data set [4] (setting [11]), 1000 mg/kg. Further, the inhibition at 10 µg/mL in data set [5] was determined as 45%.

In the case of `c1ccc(-c2cc(OCCN3CCCCC3)[nH]n2)cc1` [Example 9], the change in vivo at 10 mg/kg in data set [1] (setting [8]) was determined as 0%. The change in vivo at 10 mg/kg in data set [1] (setting [9]) was 38%. In addition, the change in vivo at 10 mg/kg in data set [1] (setting [10]) is 28%. This molecule also showed a local anesthesia in data set [2] of 100%. Further, the ED50 in data set [3] turned out to be 44 mg/kg. For the same molecule, the LD50 in data set [4] (setting [11]) fell in the range of 400 to 800 mg/kg. Besides, the inhibition at 10 µg/mL in data set [5] came out at 48%. Besides, in data set [6], the “Cardiac frequency (result in words)” value is “drops moderately”, the “Systolic arterial pressure (result in words)” value is “does not change”, the “force of ventricular myocardiac contractions (result in words)” value is listed as “does not vary significantly” and the “cumulative dose at which a 20% drop of cardiac flow is reached” value is “greater than 4 mg/kg”.

With `Clc1ccc(-c2cc(OCCN3CCOCC3)[nH]n2)cc1` [Example 10], the “decrease of the number of ventricular extrasystoles per minute” value in data set [7] is on record as “approximately 50%”. Besides, the LD50 in data set [4] (setting [11]) turned out to be 1000 mg/kg. In addition, the inhibition at 10 µg/mL in data set [5] was found to be 15%.
